What was measured:
[1] = Pharmacokinetic evaluation after intravenous or gavage administration in monkeys; type: in vivo
Procedure: (§1) The LC-MS/MS system comprises Agilent 1200 series vacuum degassing furnace, quaternary pumps, well-plate autosampler, thermostatted column compartment, the API4000Qtrap Triple Quadrupole Mass Spectrometer with an electrospray ionization (ESI) source. Quantitative analysis was carried out using MRM mode. The parameters for MRM transitions are in Table 2.
(§2) Analysis was carried out on waters xbridge C18 (2.1×50 mm, […] column, 0.5 μL of sample), the analytic conditions are mobile phases cosisting of water+2 mM ammonium formate+0.1% formic acid (Phase A) and methanol+2 mM ammonium formate+0.1% formic acid (Phase B). The flow rate was 0.4 mL/min. And the gradient of Mobile phase was in Table 3.
(§3) Each animal species was divided into two groups: one was administered intravenously and the other was administered intragastrically. The compounds disclosed herein were administered in form of a solution containing 5% DMSO+5% Kolliphor HS15+90% Saline. For the group of intravenous administration, the administration dose was 1 mg/kg, and vein blood samples (0.3 ml) were collected at the time points of 0.083, 0.25, 0.5, 1.0, 2.0, 4.0, 6.0, 8.0 and 24 h after drug administration, then plasma solutions were collected by centrifuging each blood sample at 3000 rpm or 4000 rpm for 10 minutes and kept at −20° C. or −70° C. For the group of intragastric administration, the administration dose was 5 mg/kg, and vein blood samples (0.3 mL) were collected at the time points of 0.25, 0.5, 1.0, 2.0, 4.0, 6.0, 8.0 and 24 h after drug administration, then plasma solutions were collected by centrifuging each blood sample at 3000 rpm or 4000 rpm for 10 minutes and kept at −20° C. or −70° C.
(§4) 20 μL of plasma was blended with 120 μl, 50 ng/ml propranolol standard water solution, then the mixture was extracted with 1.0 mL methyl tert-butyl ether (MTBE), 0.7 mL of supernatant was dried by blow with nitrogen and then dissolved again with 220 μL methanol water (methanol/water (v/v)=1/1). LC-MS/MS method was used to detect the concentration of the target compounds, and […] was used to calculate the pharmacokinetic parameters.

[2] = target: T1, Human recombinant monoamine oxidase A (Homo sapiens, UniProt P21397); experiment: Inhibitory effect on the activity of monoamine oxidase A; type: biochemical; details: human recombinant MAO-A, substrate p-tyramine hydrochloride
T1 construct: host or cells: Sf9 cells
T1 sequence (P21397 1-527): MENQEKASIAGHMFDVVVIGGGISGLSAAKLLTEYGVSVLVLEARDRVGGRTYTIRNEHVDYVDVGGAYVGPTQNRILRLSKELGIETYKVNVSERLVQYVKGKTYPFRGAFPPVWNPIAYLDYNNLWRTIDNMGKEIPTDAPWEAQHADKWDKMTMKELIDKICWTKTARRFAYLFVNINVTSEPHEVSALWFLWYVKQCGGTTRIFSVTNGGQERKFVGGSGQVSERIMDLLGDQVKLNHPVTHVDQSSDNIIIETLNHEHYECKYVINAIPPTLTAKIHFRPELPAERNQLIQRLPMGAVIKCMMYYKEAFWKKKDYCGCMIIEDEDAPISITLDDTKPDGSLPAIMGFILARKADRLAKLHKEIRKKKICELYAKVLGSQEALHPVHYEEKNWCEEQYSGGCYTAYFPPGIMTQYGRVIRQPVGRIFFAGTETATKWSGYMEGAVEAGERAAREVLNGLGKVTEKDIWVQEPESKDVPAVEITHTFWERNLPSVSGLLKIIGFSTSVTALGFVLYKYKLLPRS
Procedure: Human recombinant monoamine oxidase A expressed in Sf9 cells was used in the test system. In the experiment, firstly, the recombinant monoamine oxidase A was dissolved in the pre-configured HEPES buffer (0.8% NaCl, 0.037% KCl, 0.0135% Na2HPO4.2H2O, 0.1% Glucan, 0.5% HEPES, pH=7.0) at a concentration of 0.3 μg/μL. To each well of a 384-well plate was added 10 μL of monoamine oxidase A solution, and the test compound with different concentrations (the final concentration of DMSO was 1%) (10 gradient concentrations were 10 mM, 1 mM, 100 μM, 10 μM, 1 μM, 100 nM, 10 nM, 1 nM, 0.1 nM, 0.01 nM) were added into the wells, respectively. The standard reference compound was Clorgyline, the plate was incubated at room temperature for 15 min. Then, each well filled with […] (p-Tyramine hydrochloride, 1 mM) was incubated at room temperature for 60 min. Then 20 μL of fluorescein detection reagent was added to each well, which was fully blended and incubated at room temperature for 20 minutes to produce stable fluorescence signal. The fluorescence signal was read by fluorescein labeling instrument, and the value was expressed by relative light intensity (RLU). The inhibitory rate on enzyme activity was calculated according to the experimental results, the calculated formula: Inh %=(Max−Signal)/(Max−Min)*100, wherein Max was the detected value at the maximum concentration of the sample, Min was the detected value at the minimum concentration of the sample, and Signal was the detected value at the current concentration of the sample.
The standard curve was obtained through the series concentration by experimental test to calculate the IC50.

[3] = Pharmacokinetic evaluation after intravenous or gavage administration in dogs; type: in vivo, Beagle dogs; details: for AUC(0-inf) / AUC(0-t) / Cmax / MRT inf / Tmax / clearance / half-life: beagle, dog, plasma
Procedure: as §1, §2, §3, §4

[4] = monkey, plasma, iv, i.v group, 1 mg/kg
[5] = monkey, plasma, po, i.g group, 5 mg/kg

| Structure (SMILES) | F ([1]; i.g group, 5 mg/kg) [%] | AUC(0-inf) [1, 4] [ng·h/mL] | MRT inf [1, 4] [h] | Tmax [1, 4] [h] | AUC(0-inf) [1, 5] [ng·h/mL] | MRT inf [1, 5] [h] | Tmax [1, 5] [h] | IC50 [2] [µM] | AUC(0-inf) ([3]; iv, i.v group, 1 mg/kg) [ng·h/mL] | AUC(0-t) ([3]; iv, i.v group, 1 mg/kg) [ng·h/mL] | Cmax ([3]; iv, i.v group, 1 mg/kg) [ng/mL] | MRT inf ([3]; iv, i.v group, 1 mg/kg) [h] | Tmax ([3]; iv, i.v group, 1 mg/kg) [h] | clearance ([3]; iv, i.v group, 1 mg/kg) [mL/min/kg] | half-life ([3]; iv, i.v group, 1 mg/kg) [h] | AUC(0-inf) ([3]; po, i.g group, 5 mg/kg) [ng·h/mL] | AUC(0-t) ([3]; po, i.g group, 5 mg/kg) [ng·h/mL] | Cmax ([3]; po, i.g group, 5 mg/kg) [ng/mL] | MRT inf ([3]; po, i.g group, 5 mg/kg) [h] | Tmax ([3]; po, i.g group, 5 mg/kg) [h] | also measured |
| --- | --- | --- | --- | --- | --- | --- | --- | --- | --- | --- | --- | --- | --- | --- | --- | --- | --- | --- | --- | --- | --- |
| NC(=O)[C@@H]1C[C@H](F)CN1Cc1ccc(OCc2cccc(F)c2)cc1 [Example 1, (2S,4S)-4-fluoro-1-(4-(3-fluorobenzyloxy)benzyl)pyrrolidine-2-formamide] | 107.1 | 2210 | 2.35 | 0.083 | 11400 | 4.33 | 1 | 46 | 1500 | 1480 | 1230 | 2.77 | 0.083 | 11.1 | 5.05 | 4990 | 4930 | 1730 | 2.98 | 0.833 | AUClast ([1]; i.g group, 5 mg/kg): 11300 ng·h/mL; Cmax ([1]; i.g group, 5 mg/kg): 2280 ng/mL; T1/2 ([1]; i.g group, 5 mg/kg): 2.8 h; AUClast ([1]; i.v group, 1 mg/kg): 2120 ng·h/mL; Cl ([1]; i.v group, 1 mg/kg): 7.54 mL/min/kg; Cmax ([1]; i.v group, 1 mg/kg): 924 ng/mL; T1/2 ([1]; i.v group, 1 mg/kg): 1.77 h; half-life ([3]; po, i.g group, 5 mg/kg): 3.27 h; F ([3]; i.g group, 5 mg/kg): 66.5% |
| NC(=O)[C@@H]1C[C@H](F)CN1Cc1ccc(OCc2cccc(F)c2)cc1F [Example 3, (2S,4S)-4-fluoro-1-(2-fluoro-4-(3-fluorobenzyloxy)benzyl)pyrrolidine-2-formamide] | 69.1 | 3260 | 3.41 | 0.083 | 11200 | 5.02 | 1 | 29 | 979 | 977 | 1490 | 0.871 | 0.083 | 17 | 1.13 | 2450 | 2440 | 1380 | 1.44 | 0.5 | AUC(0-t) [1, 4]: 3240 ng·h/mL; clearance [1, 4]: 5.12 mL/min/kg; half-life [1, 4]: 2.24 h; Cmax ([1]; monkey, plasma, iv, i.v group, 1 mg/kg, read-out: Cmax): 1610 ng/mL; AUC(0-t) [1, 5]: 11200 ng·h/mL; half-life [1, 5]: 3.39 h; Cmax ([1]; monkey, plasma, po, i.g group, 5 mg/kg, read-out: Cmax): 2010 ng/mL; half-life ([3]; po, i.g group, 5 mg/kg): 1.09 h; F ([3]; i.g group, 5 mg/kg): 50.1% |
